Results as given in patent US12448392B2, “Spiropiperidine derivatives” (89BIO LTD, priority 2016, dated 2025).
Counter-ions that a name gives are not always drawn.

These molecules were tested against T1, recombinant human baculovirus-expressed GST-tagged FASN (Homo sapiens, UniProt P49327) (assay: biochemical). Details: not given.
T1 construct: GST
T1 sequence (P49327 whole entry): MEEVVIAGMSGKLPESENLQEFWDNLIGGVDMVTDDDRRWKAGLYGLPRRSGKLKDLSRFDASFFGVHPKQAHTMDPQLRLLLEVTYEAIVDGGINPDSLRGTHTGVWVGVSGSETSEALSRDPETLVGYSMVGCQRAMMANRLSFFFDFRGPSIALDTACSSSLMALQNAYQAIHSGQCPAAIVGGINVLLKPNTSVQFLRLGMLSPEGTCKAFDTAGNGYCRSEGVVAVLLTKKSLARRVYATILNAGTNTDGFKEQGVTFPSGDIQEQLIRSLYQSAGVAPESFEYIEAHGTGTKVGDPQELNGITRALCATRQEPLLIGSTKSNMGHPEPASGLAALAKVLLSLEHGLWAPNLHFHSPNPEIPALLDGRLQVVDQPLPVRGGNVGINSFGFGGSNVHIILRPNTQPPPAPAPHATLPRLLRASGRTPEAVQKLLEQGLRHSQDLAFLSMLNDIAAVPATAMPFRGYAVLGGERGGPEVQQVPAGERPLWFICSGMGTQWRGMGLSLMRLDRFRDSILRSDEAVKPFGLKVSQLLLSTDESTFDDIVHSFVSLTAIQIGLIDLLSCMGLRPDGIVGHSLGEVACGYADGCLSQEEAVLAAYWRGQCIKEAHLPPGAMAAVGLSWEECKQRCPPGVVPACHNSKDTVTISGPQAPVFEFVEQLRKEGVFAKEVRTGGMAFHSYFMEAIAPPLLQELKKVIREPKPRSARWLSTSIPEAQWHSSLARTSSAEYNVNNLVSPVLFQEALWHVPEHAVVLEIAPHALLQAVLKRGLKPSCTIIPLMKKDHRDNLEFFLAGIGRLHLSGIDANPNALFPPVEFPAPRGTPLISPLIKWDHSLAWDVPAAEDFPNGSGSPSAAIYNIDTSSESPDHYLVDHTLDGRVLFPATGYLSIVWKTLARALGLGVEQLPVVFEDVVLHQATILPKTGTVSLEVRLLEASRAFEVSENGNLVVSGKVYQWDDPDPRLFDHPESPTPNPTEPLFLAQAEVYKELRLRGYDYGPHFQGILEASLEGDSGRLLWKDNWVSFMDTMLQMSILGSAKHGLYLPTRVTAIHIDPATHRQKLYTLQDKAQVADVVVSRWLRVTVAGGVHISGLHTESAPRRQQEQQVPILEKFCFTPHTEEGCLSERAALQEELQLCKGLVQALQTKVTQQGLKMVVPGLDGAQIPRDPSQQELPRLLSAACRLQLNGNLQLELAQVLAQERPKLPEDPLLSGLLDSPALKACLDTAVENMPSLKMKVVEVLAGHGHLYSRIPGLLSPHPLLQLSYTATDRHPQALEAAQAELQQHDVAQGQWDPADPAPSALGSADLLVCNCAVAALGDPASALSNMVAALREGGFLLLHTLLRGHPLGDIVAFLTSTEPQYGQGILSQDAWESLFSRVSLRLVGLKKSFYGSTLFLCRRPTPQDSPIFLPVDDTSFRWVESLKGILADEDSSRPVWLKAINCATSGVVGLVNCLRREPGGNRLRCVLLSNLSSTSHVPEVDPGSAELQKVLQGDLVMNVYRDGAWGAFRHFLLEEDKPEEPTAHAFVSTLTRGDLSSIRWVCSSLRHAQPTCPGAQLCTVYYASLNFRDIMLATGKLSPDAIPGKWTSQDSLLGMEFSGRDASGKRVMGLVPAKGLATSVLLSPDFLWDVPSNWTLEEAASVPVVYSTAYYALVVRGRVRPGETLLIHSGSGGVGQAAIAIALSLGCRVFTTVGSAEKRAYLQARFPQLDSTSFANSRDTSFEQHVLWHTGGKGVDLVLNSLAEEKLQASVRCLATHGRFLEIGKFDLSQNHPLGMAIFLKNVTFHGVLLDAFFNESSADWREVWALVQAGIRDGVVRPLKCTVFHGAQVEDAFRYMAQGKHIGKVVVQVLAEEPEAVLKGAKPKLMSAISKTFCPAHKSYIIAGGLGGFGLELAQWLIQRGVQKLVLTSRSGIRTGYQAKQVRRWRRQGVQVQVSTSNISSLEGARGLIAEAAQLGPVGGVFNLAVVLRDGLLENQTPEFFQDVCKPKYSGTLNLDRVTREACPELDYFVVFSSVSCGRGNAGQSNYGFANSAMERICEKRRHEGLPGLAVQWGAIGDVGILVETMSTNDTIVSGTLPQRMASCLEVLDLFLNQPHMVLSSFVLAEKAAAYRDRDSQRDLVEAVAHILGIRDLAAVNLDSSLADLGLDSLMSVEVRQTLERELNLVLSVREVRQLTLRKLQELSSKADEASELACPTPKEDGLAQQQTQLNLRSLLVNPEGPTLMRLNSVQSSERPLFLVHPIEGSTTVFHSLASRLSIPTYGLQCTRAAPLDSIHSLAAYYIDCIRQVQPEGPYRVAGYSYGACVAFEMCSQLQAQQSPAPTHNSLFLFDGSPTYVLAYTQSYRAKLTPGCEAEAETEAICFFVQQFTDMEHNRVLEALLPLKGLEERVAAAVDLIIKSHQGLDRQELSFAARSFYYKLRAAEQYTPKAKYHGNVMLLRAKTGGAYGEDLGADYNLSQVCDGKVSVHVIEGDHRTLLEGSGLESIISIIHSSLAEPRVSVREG

Row | SMILES | IC50 [µM]
1 | CCC(=O)N1CCC2(CC1)OCc1cc(-c3ccc4c(C)nccc4c3)ccc1O2 [Example 21, 1-[6-(1-Methyl-6-isoquinolyl)spiro[4H-1,3-benzodioxine-2,4′-piperidine]-1′-yl]propan-1-one] | 0.001 to 0.099
2 | Cc1nccc2cc(-c3ccc4c(c3)COC3(CCN(C(=O)C5CC5)CC3)O4)ccc12 [Example 22, Cyclopropyl-[6-(1-methyl-6-isoquinolyl)spiro[4H-1,3-benzodioxine-2,4′-piperidine]-1′-yl]methanone] | 0.001 to 0.099
3 | Cc1nccc2cc(-c3ccc4c(c3)COC3(CCN(C(=O)[C@H]5CCCO5)CC3)O4)ccc12 [Example 23, [6-(1-Methyl-6-isoquinolyl)spiro[4H-1,3-benzodioxine-2,4′-piperidine]-1′-yl]-[(2R)-tetrahydrofuran-2-yl]methanone] | 0.001 to 0.099
4 | CCOC(=O)N1CCC2(CC1)OCc1cc(-c3ccc4cccnc4c3)ccc1O2 [Example 30, Ethyl 6-(7-quinolyl)spiro[4H-1,3-benzodioxine-2,4′-piperidine]-1′-carboxylate] | 0.001 to 0.099
5 | CC(C)C(=O)N1CCC2(CC1)OCc1cc(-c3ccc4cccnc4c3)ccc1O2 [Example 31, 2-Methyl-1-[6-(7-quinolyl)spiro[4H-1,3-benzodioxine-2,4′-piperidine]-1′-yl]propan-1-one] | 0.001 to 0.099
6 | O=C(C1CC1)N1CCC2(CC1)OCc1cc(-c3ccc4cccnc4c3)ccc1O2 [Example 32, Cyclopropyl-[6-(7-quinolyl)spiro[4H-1,3-benzodioxine-2,4′-piperidine]-1′-yl]methanone] | 0.001 to 0.099
7 | CCC(=O)N1CCC2(CC1)OCc1cc(-c3cnc4ccccc4c3)ccc1O2 [Example 33, 1-[6-(3-Quinolyl)spiro[4H-1,3-benzodioxine-2,4′-piperidine]-1′-yl]propan-1-one] | 0.001 to 0.099
8 | CC(C)C(=O)N1CCC2(CC1)OCc1cc(-c3cnc4ccccc4c3)ccc1O2 [Example 34, 2-Methyl-1-[6-(3-quinolyl)spiro[4H-1,3-benzodioxine-2,4′-piperidine]-1′-yl]propan-1-one] | 0.001 to 0.099
9 | CCOC(=O)N1CCC2(CC1)OCc1cc(-c3cnc4cccnc4c3)ccc1O2 [Example 35, Ethyl 6-(1,5-naphthyridin-3-yl)spiro[4H-1,3-benzodioxine-2,4′-piperidine]-1′-carboxylate] | 1 to 10
10 | CCC(=O)N1CCC2(CC1)OCc1cc(-c3cnc4cccnc4c3)ccc1O2 [Example 36, 1-[6-(1,5-Naphthyridin-3-yl)spiro[4H-1,3-benzodioxine-2,4′-piperidine]-1′-yl]propan-1-one] | 1 to 10
11 | O=C(C1CC1)N1CCC2(CC1)OCc1cc(-c3cnc4cccnc4c3)ccc1O2 [Example 37, Cyclopropyl-[6-(1,5-naphthyridin-3-yl)spiro[4H-1,3-benzodioxine-2,4′-piperidine]-1′-yl]methanone] | 1 to 10
12 | O=C(C1CC1)N1CCC2(CC1)OCc1cc(-c3cnc4ccccc4c3)ccc1O2 [Example 40, Cyclopropyl-[6-(3-quinolyl)spiro[4H-1,3-benzodioxine-2,4′-piperidine]-1′-yl]methanone] | 0.001 to 0.099
13 | O=C(C1CCC1)N1CCC2(CC1)OCc1cc(-c3cnc4ccccc4c3)ccc1O2 [Example 41, Cyclobutyl-[6-(3-quinolyl)spiro[4H-1,3-benzodioxine-2,4′-piperidine]-1′-yl]methanone] | 0.001 to 0.099
14 | O=C([C@H]1CCCO1)N1CCC2(CC1)OCc1cc(-c3cnc4ccccc4c3)ccc1O2 [Example 48, [6-(3-Quinolyl)spiro[4H-1,3-benzodioxine-2,4′-piperidine]-1′-yl]-[(2R)-tetrahydrofuran-2-yl]methanone] | 0.001 to 0.099
15 | COc1c(-c2ccc3c(c2)COC2(CCN(C(=O)C4CC4)CC2)O3)ccc2cccnc12 [Example 49, Cyclopropyl-[6-(8-methoxy-7-quinolyl)spiro[4H-1,3-benzodioxine-2,4′-piperidine]-1′-yl]methanone] | 0.001 to 0.099
16 | Cc1c(-c2ccc3c(c2)COC2(CCN(C(=O)[C@H]4CCCO4)CC2)O3)ccc2cccnc12 [Example 50, [6-(8-Methyl-7-quinolyl)spiro[4H-1,3-benzodioxine-2,4′-piperidine]-1′-yl]-[(2R)-tetrahydrofuran-2-yl]methanone] | 0.001 to 0.099
17 | Cc1c(-c2ccc3c(c2)COC2(CCN(C(=O)[C@H]4CCCO4)CC2)O3)cnc2ccccc12 [Example 51] | 0.001 to 0.099
18 | CCC(=O)N1CCC2(CC1)OCc1cc(-c3cnc4ccccc4c3C)ccc1O2 [Example 52, 1-[6-(4-Methyl-3-quinolyl)spiro[4H-1,3-benzodioxine-2,4′-piperidine]-1′-yl]propan-1-one] | 0.001 to 0.099
19 | CCC(=O)N1CCC2(CC1)OCc1cc(-c3ccc4cccnc4c3C)ccc1O2 [Example 53, 1-[6-(8-Methyl-7-quinolyl)spiro[4H-1,3-benzodioxine-2,4′-piperidine]-1′-yl]propan-1-one] | 0.001 to 0.099
20 | Cc1c(-c2ccc3c(c2)COC2(CCN(C(=O)C4CC4)CC2)O3)ccc2cccnc12 [Example 54, Cyclopropyl-[6-(8-methyl-7-quinolyl)spiro[4H-1,3-benzodioxine-2,4′-piperidine]-1′-yl]methanone] | 0.001 to 0.099
21 | CCC(=O)N1CCC2(CC1)OCc1cc(-c3ccc4cccnc4c3OC)ccc1O2 [Example 55, 1-[6-(8-Methoxy-7-quinolyl)spiro[4H-1,3-benzodioxine-2,4′-piperidine]-1′-yl]propan-1-one] | 0.001 to 0.099

Same assay, conditions: 5 nM FASN, 150 μM NADPH, 10 μM acetyl-CoA, 25 μM malonyl-CoA, 90 minutes incubation; read-out: IC50 data for Compounds of Formula I, Activity

Row | SMILES | IC50 [µM]
22 | COc1c(-c2ccc3c(c2)CCC2(CCN(C(=O)[C@H]4CCCO4)CC2)O3)ccc2cccnc12 [Example 16, [6-(8-Methoxy-7-quinolyl)spiro[chromane-2,4′-piperidine]-1′-yl]-[(2R)-tetra-hydrofuran-2-yl]methanone HCl] | 0.001 to 0.099
23 | CCC(=O)N1CCC2(CCc3cc(-c4cc(C)c5ncccc5c4)ccc3O2)CC1 [Example 17, 1-[6-(8-Methyl-6-quinolyl)spiro[chromane-2,4′-piperidine]-1′-yl]propan-1-one, HCl] | 0.1 to 0.999
24 | Cc1cc(-c2ccc3c(c2)CCC2(CCN(C(=O)C4CC4)CC2)O3)cc2cccnc12 [Example 18, Cyclopropyl-[6-(8-methyl-6-quinolyl)spiro[chromane-2,4′-piperidine]-1′-yl]methanone HCl] | 0.1 to 0.999
25 | CCC(=O)N1CCC2(CCc3cc(-c4ccc5cccnc5c4OC)ccc3O2)CC1 [Example 19, 1-[6-(8-Methoxy-7-quinolyl)spiro[chromane-2,4′-piperidine]-1′-yl]propan-1-one] | 0.001 to 0.099
26 | Cc1cc(-c2ccc3c(c2)CCC2(CCN(C(=O)[C@H]4CCCO4)CC2)O3)cc2cccnc12 [Example 20, [6-(8-Methyl-6-quinolyl)spiro[chromane-2,4′-piperidine]-1′-yl]-[(2R)-tetrahydrofuran-2-yl]methanone] | 0.001 to 0.099
27 | CCC(=O)N1CCC2(CCc3cc(-c4ccc5c(C)nccc5c4)ccc3O2)CC1 [Example 24, 1-[6-(1-Methyl-6-isoquinolyl)spiro[chromane-2,4′-piperidine]-1′-yl]propan-1-one] | 0.001 to 0.099
28 | Cc1nccc2cc(-c3ccc4c(c3)CCC3(CCN(C(=O)C5CC5)CC3)O4)ccc12 [Example 25, Cyclopropyl-[6-(1-methyl-6-isoquinolyl)spiro[chromane-2,4′-piperidine]-1′-yl]methanone] | 0.1 to 0.999
29 | CCC(=O)N1CCC2(CCc3cc(-c4ccc5nccn5c4C)ccc3O2)CC1 [Example 26, 1-[6-(5-methylimidazo[1,2-a]pyridin-6-yl)spiro[chromane-2,4′-piperidine]-1′-yl]propan-1-one] | 0.1 to 0.999
30 | Cc1c(-c2ccc3c(c2)CCC2(CCN(C(=O)C4CC4)CC2)O3)ccc2nccn12 [Example 27, Cyclopropyl-[6-(5-methylimidazo[1,2-a]pyridin-6-yl)spiro[chromane-2,4′-piperidine]-1′-yl]methanone] | 0.1 to 0.999
31 | Cc1c(-c2ccc3c(c2)CCC2(CCN(C(=O)[C@H]4CCCO4)CC2)O3)ccc2nccn12 [Example 28, [6-(5-Methylimidazo[1,2-a]pyridin-6-yl)spiro[chromane-2,4′-piperidine]-1′-yl]-[(2R)-tetrahydrofuran-2-yl]methanone] | 0.001 to 0.099
32 | CCC(=O)N1CCC2(CC1)CC(=O)c1cc(-c3cnc4ccccc4c3)ccc1O2 [Example 38, 1′-Propanoyl-6-(3-quinolyl)spiro[chromane-2,4′-piperidine]-4-one] | 0.1 to 0.999
33 | COC(=O)N1CCC2(CC1)CC(=O)c1cc(-c3cnc4ccccc4c3)ccc1O2 [Example 39, Methyl 4-oxo-6-(3-quinolyl)spiro[chromane-2,4′-piperidine]-1′-carboxylate] | 1 to 10
34 | CCC(=O)N1CCC2(CC1)CC(O)c1cc(-c3cnc4ccccc4c3)ccc1O2 (stereo not drawn) [Example 42, 1-[4-Hydroxy-6-(3-quinolyl)spiro[chromane-2,4′-piperidine]-1′-yl]propan-1-one] | 0.1 to 0.999
35 | CCC(=O)N1CCC2(C=Cc3cc(-c4cnc5ccccc5c4)ccc3O2)CC1 [Example 43, 1-[6-(3-Quinolyl)spiro[chromene-2,4′-piperidine]-1′-yl]propan-1-one] | 0.001 to 0.099
36 | O=C(C1CC1)N1CCC2(C=Cc3cc(-c4cnc5ccccc5c4)ccc3O2)CC1 [Example 44, Cyclopropyl-[6-(3-quinolyl)spiro[chromene-2,4′-piperidine]-1′-yl]methanone] | 0.001 to 0.099
37 | O=C(C1CCC1)N1CCC2(C=Cc3cc(-c4cnc5ccccc5c4)ccc3O2)CC1 [Example 45, Cyclobutyl-[6-(3-quinolyl)spiro[chromene-2,4′-piperidine]-1′-yl]methanone] | 0.001 to 0.099
38 | O=C(C1CC1)N1CCC2(CC1)CC(O)c1cc(-c3cnc4ccccc4c3)ccc1O2 (stereo not drawn) [Example 46, Cyclopropyl-[4-hydroxy-6-(3-quinolyl)spiro[chromane-2,4′-piperidine]-1′-yl]methanone] | 0.1 to 0.999
39 | CCC(=O)N1CCC2(CCc3cc(-c4cnc5ccccc5c4)ccc3O2)CC1 [Example 47, 1-[6-(3-Quinolyl)spiro[chromane-2,4′-piperidine]-1′-yl]propan-1-one] | 0.001 to 0.099
